# How the values were obtained:
# [1] = tested on: MC3T3-E1 preosteoblast cells; assay: Cell spreading area on modified surfaces (immunofluorescence analysis of cell morphology); assay type: cell-based, mouse
# Procedure: The degree of cell spreading on a functionalized glass slide was measured by immunofluorescence analysis. After culture medium was removed, the slide was washed with PBS and then cells on the slide were fixed with 4% paraformaldehyde for 20 min. The slide was washed with PBS thrice and incubated for 5 min with 0.4% triton-X in PBS. Subsequently, the slide was washed with PBS thrice, followed by blocking with 3% bovine serum albumin (BSA) in PBS for 1 h at rt and then incubated with Alexa Fluor-555-conjugated anti-vinculin antibody (1:300 in PBS) overnight at 4 °C. The slide was washed with PBS thrice and incubated for 2 h with FITC-phalloidin (1:200 in PBS) and 4′-6-diamidino-2-phenylindole (DAPI) (5 μg/mL) for 10 min. The slide was washed with PBS thrice and its fluorescent images were collected on a confocal microscope (Nikon A1R, Japan).
# [2] = tested on: MC3T3-E1 preosteoblast cells; assay: Cell adhesion in a serum-free environment with enzyme-pretreated cells; assay type: cell-based, mouse; set-up: unit not given here; settings: serum-free medium, 1 day
# Procedure: Cells were detached and washed thrice with a serum-free medium. In order to examine the impact of cell membrane-tethered proteins on cell adhesion in a serum-free environment, cells were suspended and incubated at 37 °C for 20 min in 3 mL serum-free α-MEM medium that contains 0.307 U/mL plasmin, 10 U/mL collagenase (types I and II), 2 U/mL heparinase (types I, II, and III), or 10 U/mL hyaluronidase, respectively. The protease-treated cells were washed and suspended in a serum-free α-MEM to a final concentration of 1.5 × 10^5 cells/mL. An aliquot of 10 μL this cell suspension was added to each individual well (formed by a 50-well silicon coverslip on the top of a glass slide) that has bottom surface modified with DM50CO50, RGD, or KRSR, respectively, and then the slide was placed in a petri dish for incubation at 37 °C for 2 h for cell attachment. Then additional fresh medium was added into the petri dish to immerse the entire slide and the whole dish was incubated for 1 day. After removing the medium, cells were stained with a live/dead staining solution and the fluorescent images were captured under a microscope (Nikon Eclipse Ti-S, Japan) at different locations of each well. The collected images were analyzed using Image-pro plus software.
# [3] = Control: untreated cells, value 1 of n = 9
# [4] = Control: untreated cells, value 2 of n = 9
# [5] = Control: untreated cells, value 3 of n = 9
# [6] = Control: untreated cells, value 4 of n = 9
# [7] = Control: untreated cells, value 5 of n = 9
# [8] = Control: untreated cells, value 6 of n = 9
# [9] = Control: untreated cells, value 7 of n = 9
# [10] = Control: untreated cells, value 8 of n = 9
# [11] = Control: untreated cells, value 9 of n = 9
# [12] = cells pretreated with Collagenase 10 U/mL, value 1 of n = 9
# [13] = cells pretreated with Collagenase 10 U/mL, value 2 of n = 9
# [14] = cells pretreated with Collagenase 10 U/mL, value 3 of n = 9
# [15] = cells pretreated with Collagenase 10 U/mL, value 4 of n = 9
# [16] = cells pretreated with Collagenase 10 U/mL, value 5 of n = 9
# [17] = cells pretreated with Collagenase 10 U/mL, value 6 of n = 9
# [18] = cells pretreated with Collagenase 10 U/mL, value 7 of n = 9
# [19] = cells pretreated with Collagenase 10 U/mL, value 8 of n = 9
# [20] = cells pretreated with Collagenase 10 U/mL, value 9 of n = 9
# [21] = cells pretreated with Heparinase 2 U/mL, value 1 of n = 9
# [22] = cells pretreated with Heparinase 2 U/mL, value 2 of n = 9
# [23] = cells pretreated with Heparinase 2 U/mL, value 3 of n = 9
# [24] = cells pretreated with Heparinase 2 U/mL, value 4 of n = 9
# [25] = cells pretreated with Heparinase 2 U/mL, value 5 of n = 9
# [26] = cells pretreated with Heparinase 2 U/mL, value 6 of n = 9
# [27] = cells pretreated with Heparinase 2 U/mL, value 7 of n = 9
# [28] = cells pretreated with Heparinase 2 U/mL, value 8 of n = 9
# [29] = cells pretreated with Heparinase 2 U/mL, value 9 of n = 9
# [30] = cells pretreated with Hyaluronidase 10 U/mL, value 1 of n = 9
# [31] = cells pretreated with Hyaluronidase 10 U/mL, value 2 of n = 9
# [32] = cells pretreated with Hyaluronidase 10 U/mL, value 3 of n = 9
# [33] = cells pretreated with Hyaluronidase 10 U/mL, value 4 of n = 9
# [34] = cells pretreated with Hyaluronidase 10 U/mL, value 5 of n = 9
# [35] = cells pretreated with Hyaluronidase 10 U/mL, value 6 of n = 9
# [36] = cells pretreated with Hyaluronidase 10 U/mL, value 7 of n = 9
# [37] = cells pretreated with Hyaluronidase 10 U/mL, value 8 of n = 9
# [38] = cells pretreated with Hyaluronidase 10 U/mL, value 9 of n = 9
# [39] = cells pretreated with Plasmin 0.307 U/mL, value 1 of n = 9
# [40] = cells pretreated with Plasmin 0.307 U/mL, value 2 of n = 9
# [41] = cells pretreated with Plasmin 0.307 U/mL, value 3 of n = 9
# [42] = cells pretreated with Plasmin 0.307 U/mL, value 4 of n = 9
# [43] = cells pretreated with Plasmin 0.307 U/mL, value 5 of n = 9
# [44] = cells pretreated with Plasmin 0.307 U/mL, value 6 of n = 9
# [45] = cells pretreated with Plasmin 0.307 U/mL, value 7 of n = 9
# [46] = cells pretreated with Plasmin 0.307 U/mL, value 8 of n = 9
# [47] = cells pretreated with Plasmin 0.307 U/mL, value 9 of n = 9
substance,measurement,setting,value
KRSRGYC,Cell area of preosteoblast cells,"[1]; cultured on modified surface for 3 h, replicate 1",2526
same,Cell area of preosteoblast cells,"[1]; cultured on modified surface for 3 h, replicate 2",2456
same,Cell area of preosteoblast cells,"[1]; cultured on modified surface for 3 h, replicate 3",2659
same,Cell area of preosteoblast cells,"[1]; cultured on modified surface for 24 h, replicate 1",4026
same,Cell area of preosteoblast cells,"[1]; cultured on modified surface for 24 h, replicate 2",4102
same,Cell area of preosteoblast cells,"[1]; cultured on modified surface for 24 h, replicate 3",4230
same,Cell density (figure 6c),[2]; [3],96
same,Cell spreading area (figure 6b),[2]; [3],2152
same,Cell density (figure 6c),[2]; [4],95
same,Cell spreading area (figure 6b),[2]; [4],2263
same,Cell density (figure 6c),[2]; [5],98
same,Cell spreading area (figure 6b),[2]; [5],2236
same,Cell density (figure 6c),[2]; [6],96
same,Cell spreading area (figure 6b),[2]; [6],2265
same,Cell density (figure 6c),[2]; [7],96
same,Cell spreading area (figure 6b),[2]; [7],2150
same,Cell density (figure 6c),[2]; [8],90
same,Cell spreading area (figure 6b),[2]; [8],2154
same,Cell density (figure 6c),[2]; [9],96
same,Cell spreading area (figure 6b),[2]; [9],2365
same,Cell density (figure 6c),[2]; [10],89
same,Cell spreading area (figure 6b),[2]; [10],2263
same,Cell density (figure 6c),[2]; [11],98
same,Cell spreading area (figure 6b),[2]; [11],2153
same,Cell density (figure 6c),[2]; [12],92
same,Cell spreading area (figure 6b),[2]; [12],2270.3
same,Cell density (figure 6c),[2]; [13],92
same,Cell spreading area (figure 6b),[2]; [13],2036
same,Cell density (figure 6c),[2]; [14],89
same,Cell spreading area (figure 6b),[2]; [14],2011.4
same,Cell density (figure 6c),[2]; [15],88
same,Cell spreading area (figure 6b),[2]; [15],2163
same,Cell density (figure 6c),[2]; [16],95
same,Cell spreading area (figure 6b),[2]; [16],2200
same,Cell density (figure 6c),[2]; [17],89
same,Cell spreading area (figure 6b),[2]; [17],2110.4
same,Cell density (figure 6c),[2]; [18],98
same,Cell spreading area (figure 6b),[2]; [18],2163
same,Cell density (figure 6c),[2]; [19],90
same,Cell spreading area (figure 6b),[2]; [19],2145
same,Cell density (figure 6c),[2]; [20],90
same,Cell spreading area (figure 6b),[2]; [20],2068
same,Cell density (figure 6c),[2]; [21],83
same,Cell spreading area (figure 6b),[2]; [21],1652
same,Cell density (figure 6c),[2]; [22],81
same,Cell spreading area (figure 6b),[2]; [22],1526.5
same,Cell density (figure 6c),[2]; [23],76
same,Cell spreading area (figure 6b),[2]; [23],1753
same,Cell density (figure 6c),[2]; [24],75
same,Cell spreading area (figure 6b),[2]; [24],1586.3
same,Cell density (figure 6c),[2]; [25],82
same,Cell spreading area (figure 6b),[2]; [25],1632
same,Cell density (figure 6c),[2]; [26],72
same,Cell spreading area (figure 6b),[2]; [26],1552.3
same,Cell density (figure 6c),[2]; [27],85
same,Cell spreading area (figure 6b),[2]; [27],1596.3
same,Cell density (figure 6c),[2]; [28],68
same,Cell spreading area (figure 6b),[2]; [28],1550
same,Cell density (figure 6c),[2]; [29],83
same,Cell spreading area (figure 6b),[2]; [29],1620
same,Cell density (figure 6c),[2]; [30],94
same,Cell spreading area (figure 6b),[2]; [30],2270.3
same,Cell density (figure 6c),[2]; [31],93
same,Cell spreading area (figure 6b),[2]; [31],1990.3
same,Cell density (figure 6c),[2]; [32],84
same,Cell spreading area (figure 6b),[2]; [32],2011.4
same,Cell density (figure 6c),[2]; [33],93
same,Cell spreading area (figure 6b),[2]; [33],1892.3
same,Cell density (figure 6c),[2]; [34],89
same,Cell spreading area (figure 6b),[2]; [34],2309.4
same,Cell density (figure 6c),[2]; [35],95
same,Cell spreading area (figure 6b),[2]; [35],2110.4
same,Cell density (figure 6c),[2]; [36],90
same,Cell spreading area (figure 6b),[2]; [36],2409.4
same,Cell density (figure 6c),[2]; [37],89
same,Cell spreading area (figure 6b),[2]; [37],1909
same,Cell density (figure 6c),[2]; [38],90
same,Cell spreading area (figure 6b),[2]; [38],1893
same,Cell density (figure 6c),[2]; [39],89
same,Cell spreading area (figure 6b),[2]; [39],2136
same,Cell density (figure 6c),[2]; [40],90
same,Cell spreading area (figure 6b),[2]; [40],2153.4
same,Cell density (figure 6c),[2]; [41],91
same,Cell spreading area (figure 6b),[2]; [41],2145
same,Cell density (figure 6c),[2]; [42],94
same,Cell spreading area (figure 6b),[2]; [42],2033
same,Cell density (figure 6c),[2]; [43],93
same,Cell spreading area (figure 6b),[2]; [43],2312.4
same,Cell density (figure 6c),[2]; [44],78
same,Cell spreading area (figure 6b),[2]; [44],2019.3
same,Cell density (figure 6c),[2]; [45],90
same,Cell spreading area (figure 6b),[2]; [45],2036
same,Cell density (figure 6c),[2]; [46],94
same,Cell spreading area (figure 6b),[2]; [46],2435.5
same,Cell density (figure 6c),[2]; [47],91
same,Cell spreading area (figure 6b),[2]; [47],2135
